# Results from patent publication US6057359A, “Spontaneously dispersible concentrates comprising esters of baccatin-III compounds having antitumor and antiviral activity” (Marigen S.A., priority 1997, dated 2000).
# Experiments:
# [1] = test system: Py6 cells (Virus transformed 3T3 mouse-fibroblasts); experiment: Test of cell toxicity / cytotoxicity of MARIGENOL concentrates on Py6 cells (plaque assay, serial dilution); assay type: cell-based; details: for in dilution active up to 1: (microemulsion ME 1:100): dilution of ME 1:100, given in Mio.
# Method: A biological assay system using microtiter plates and serial dilutions has been developed. Batches of 10^4 tumour cells per ml were set up in culture medium RPMI 1640 and inactivated with 10% of fetal calf serum (GIBCO); they are spread at a density low enough to enable them to grow during the assay, in non-confluent monolayers. Samples are added after 6 to 24 hours, with 100 μl per row, to which 100 μl of medium are added in the first well. Half of this mixture is withdrawn, transferred into the next well and again treated with 100 μl of medium, etc.
# […] They are then stained and fixed using 0.1% crystal violet (Fluka, Buchs) in a solution of 70% of methanol, 1% of formaldehyde and 29% of water. The samples are evaluated under the microscope, magnification 300×. The greatest cytotoxic dilution is determined. The samples can also be evaluated quantitatively by means of scanning and absorption measurement in a spectrophotometer.
# N.B.: On the subject of the eternalized Py6-cells cf.: "Biochemistry", Coordinating Editor Geoffrey L. Zubay, Addison-Wesley Publishing Company, 1983, p.1079.
# LEUKEMIA K 562 = experiment: Vitality/proliferation test (Tritium), leukemia K 562; assay type: cell-based, human; details: controls 50'037 cpm
# Excerpt: (§1) 4.0 Comparative assays with human tumor cell lines
# (§2) VITALITY TEST/1%-MARIGENOL-CONCENTRATE
# (§3) 1 × 10^4 cells per well
# (§4) Proliferation test (Tritium: 1 μCi/well H^+)
# LEUKEMIA DAUDI-LINE = experiment: Vitality/proliferation test (Tritium), leukemia Daudi-line; assay type: cell-based, human; details: controls 23'090 cpm
# Excerpt: as §1, §2, §3, §4
# [2] = test system: HIV isolates from patients (strains 21/4 and 4/5); experiment: Effect on HIV infectivity, residual HIV titre (direct antiviral efficacy); assay type: cell-based
# Method: Aliquote amounts of two HIV isolates from patients (strains 21/4 and 4/5) resuspended in complete RPMI medium at a titre of 300 CCID50 /ml were incubated during 3 hours, +4° C. with MARIGENOL®-concentrate, in the form of an aqueous microemulsion, at concentrations ranging from 10^-2 to 10^-5 in complete medium, as well as with ("empty") carrier concentrate and with medium alone as controls.
# After pre-incubation, residual HIV titre was assessed by the CCID50 method (Cell-culture infecting dose 50%). Briefly, serial twofold dilutions were prepared from each of the six virus suspensions, and 200 μl of each dilution were incubated for 90 minutes with MT-4 cell pellets prepared as stated before (see 7.1). At the end of incubation, pellets were brought to initial cell concentration by adding appropriate amounts of complete RPMI medium to each tube, whose content was then distributed into 8 wells of a flat-bottom microtitre plate in 200 μl volumes, each vertical row coresponding to a dilution. After 5 days of incubation, cell viability was assessed by the MTT test as stated above, and the HIV titre was expressed as the reciprocal of that dilution which infects 4 out of 8 wells (50%) in a row. A well was considered infected when its O.D. readout at 550 nm was lower than the average readout of 8 control wells minus 2.8 times the standard error of the mean (lower 95% confidence limit).
# [3] = test system: Herpes-Virus (Herpes Simplex, HSV); experiment: Antiviral/virucidal efficacy against HSV, plaque reduction in VERO cells; assay type: cell-based; details: compared to simple medium, 2880 min
# Method: (§5) The antiviral/virucidal efficacy against HSV of an aqueous microemulsion prepared with appropriate MARIGENOL®-concentrates was assessed on a confluent monolayer culture of VERO cells (i.e. "African green monkey kidney cells"). The host cells were pretreated during 3 h at 4° C. with an inventive microemulsion or with culture medium alone and then infected with HSV at a constant dose of 10^4 plaque forming units (PFU). After virus absorption during 1 h, and subsequent addition of 2% methylcellulose in order to limit virus spreading, cells were cultured in MEM medium+2% foetal calf serum for 48 h, then fixed and stained with 1% crystal violet in methanol. The reduction of viral titre was expressed as percent reduction of plaques of lysis observed in pre-treated cells, compared to controls.
# Infection was also detected by IFA at 24 h after inoculation, using a Mab specific for a glycoprotein common to HSV-1/HSV-2 (clone FQ 12, Argene Biosoft, BIOLINE, Torino).
# The following test substances were assessed as concentrates in aqueous dilution (starting with a microemulsion 1:100): […]
# VERO cells = experiment: Cell lysis in VERO cell layers; assay type: cell-based, African green monkey; details: dilution 1:1'000; plaque reduction table
# Method: as §5
Compound,"in dilution active up to 1: (calculated on active substance content, A.S.) ([1]; 24 h exposure)","in dilution active up to 1: (calculated on active substance content, A.S.) ([1]; 48 h exposure)","in dilution active up to 1: (calculated on active substance content, A.S.) ([1]; 72 h exposure)",Proliferation test % (LEUKEMIA K 562; 10^-3),Proliferation test cpm (LEUKEMIA K 562; 10^-3),Proliferation test % (LEUKEMIA K 562; 10^-4),Proliferation test cpm (LEUKEMIA K 562; 10^-4),Proliferation test % (LEUKEMIA K 562; 10^-5),Proliferation test % (LEUKEMIA DAUDI-LINE; 10^-3),Proliferation test cpm (LEUKEMIA DAUDI-LINE; 10^-3),Proliferation test % (LEUKEMIA DAUDI-LINE; 10^-4),Proliferation test cpm (LEUKEMIA DAUDI-LINE; 10^-4),Proliferation test % (LEUKEMIA DAUDI-LINE; 10^-5),other results
CCCCCCCCCCCC(=O)Oc1ccc(-c2oc3cc(OC(=O)CCCCCCCCCCC)cc(OC(=O)CCCCCCCCCCC)c3c(=O)c2OC(=O)CCCCCCCCCCC)c(OC(=O)CCCCCCCCCCC)c1 [MORIN-PENTA-LAURATE],12.8 Mio.,100 Mio.,100 Mio.,,,,,,,,,,,in dilution active up to 1: (microemulsion ME 1:100) ([1]; 48 h exposure): 1 Mio.; in dilution active up to 1: (microemulsion ME 1:100) ([1]; 72 h exposure): 1 Mio.
7-Baccatin III-all trans-retinoate,12.8 Mio.,25.6 Mio.,25.6 Mio.,0.8%,415 cpm,1.6%,822 cpm,15.0%,1.1%,256 cpm,1.7%,412 cpm,52.7%,
CCCCCCCCCCCCCCCC(=O)Oc1cc(OC(=O)CCCCCCCCCCCCCCC)c2c(=O)cc(-c3ccccc3)oc2c1 [CHRYSIN-DI-PALMITATE],12.8 Mio.,51.2 Mio.,51.2 Mio.,,,,,,,,,,,
"C=CCCCCCCCCC(=O)O[C@H]1CC[C@@]2(C)C(=CC=C3[C@@H]4CC[C@H]([C@H](C)/C=C/[C@H](C)C(C)C)[C@@]4(C)CC[C@@H]32)C1 [ERGOSTERYL-10-UNDECENOATE, (3β, 22E)-Ergosta-5,7,22-triene-3-ol-10-undecenoate]",,,,,,,,,,,,,,"RESIDUAL HIV TITRE (CCID50) ([2]; concentrate 1'000 ppm, active substance 10 ppm, mean titre of 2 strains, 3 h, +4° C.): 25 CCID50; inhibition of HIV infectivity ([2]; pre-treatment with 1%-concentrate): somewhat less potent inhibition"
CCCCCCCCCCCC(=O)Oc1cc(OC(=O)CCCCCCCCCCC)c2c(=O)cc(-c3ccccc3)oc2c1 [CHRYSIN-DI-LAURATE],12.8 Mio.,51.2 Mio.,100 Mio.,,,,,,,,,,,in dilution active up to 1: (microemulsion ME 1:100) ([1]; 72 h exposure): 1 Mio.
"CCCCCCCCCCCCCCCCCCCC(=O)O[C@H]1CC[C@@]2(C)C(=CC[C@H]3[C@@H]4CC[C@H]([C@H](C)CC[C@@H](CC)C(C)C)[C@@]4(C)CC[C@@H]32)C1 [β-Sitosteryl-Arachidate, 3β-Stigmast-5-en-3-arachidate]",,,,,,,,,,,,,,Percent reduction of plaques in VERO cell monolayers ([3]; dilution 1:10'000): 76%; Percent reduction of plaques in VERO cell monolayers ([3]; dilution 1:100'000): 5%; Cell-Lysis (VERO cells): Cell-Lysis
"CC(=O)O[C@H]1C(=O)[C@@]2(C)[C@H]([C@H](OC(=O)c3ccccc3)[C@]3(O)C[C@H](OC(=O)[C@H](O)[C@@H](NC(=O)c4ccccc4)c4ccccc4)C(C)=C1C3(C)C)[C@]1(OC(C)=O)CO[C@@H]1C[C@@H]2O [TAXOL-A.S., Taxol (Paclitaxel), reference compound]",6.4 Mio.,25.6 Mio.,25.6 Mio.,1.3%,679 cpm,1.6%,830 cpm,7.1%,2.3%,552 cpm,2.9%,672 cpm,69.6%,
CCCCCCCCCCCCCCCC(=O)Oc1ccc(-c2oc3cc(OC(=O)CCCCCCCCCCCCCCC)cc(OC(=O)CCCCCCCCCCCCCCC)c3c(=O)c2OC(=O)CCCCCCCCCCCCCCC)c(OC(=O)CCCCCCCCCCCCCCC)c1 [MOREN-PENTA-PALMITATE],6.4 Mio.,51.2 Mio.,51.2 Mio.,,,,,,,,,,,
"CCCCCCCCCCCC(=O)O[C@H]1CC[C@@]2(C)C(=CC=C3[C@@H]4CC[C@H]([C@H](C)/C=C/[C@H](C)C(C)C)[C@@]4(C)CC[C@@H]32)C1 [C12:0 -ERGO ESTER (ERGOST. LAURATE), (3β, 22E)-Ergosta-5,7,22-triene-3-ol-laurate]",,,,,,,,,,,,,,Percent reduction of plaques in VERO cell monolayers ([3]; dilution 1:10'000): 62%; Percent reduction of plaques in VERO cell monolayers ([3]; dilution 1:100'000): 0%; Cell-Lysis (VERO cells): Cell-Lysis
"C=CCCCCCCCCC(=O)O[C@H]1C[C@@]2(O)[C@@H](OC(=O)c3ccccc3)[C@@H]3[C@]4(OC(C)=O)CO[C@@H]4C[C@H](OC(=O)CCCCCCCCC=C)[C@@]3(C)C(=O)[C@H](OC(C)=O)C(=C1C)C2(C)C [BACCATIN III-DI-UNDECENOATE, 7,13-Baccatin-III-diundecenoate]",12.8 Mio.,25.6 Mio.,100 Mio.,0.9%,466 cpm,1.3%,665 cpm,9.5%,1.2%,293 cpm,2.8%,653 cpm,41.7%,in dilution active up to 1: (microemulsion ME 1:100) ([1]; 72 h exposure): 1 Mio.
"CCCCCCCCCCCC(=O)O[C@H]1C[C@@]2(O)[C@@H](OC(=O)c3ccccc3)[C@@H]3[C@]4(OC(C)=O)CO[C@@H]4C[C@H](OC(=O)CCCCCCCCCCC)[C@@]3(C)C(=O)[C@H](OC(C)=O)C(=C1C)C2(C)C [BACCATIN III-DI-LAURATE, 7,13-Dilauroylbaccatin-III]",12.8 Mio.,12.8 Mio.,25.6 Mio.,1.1%,585 cpm,1.3%,651 cpm,6.1%,1.4%,346 cpm,1.9%,455 cpm,38.3%,
